Experimental data reported in patent US10751339B2, “Substituted aminopyrimidine compounds and methods of use” (SUNSHINE LAKE PHARMA CO., LTD., priority 2018, dated 2020).

Tests used:
[1] = Compound stability in human liver microsomes; format: in vitro ADME; conditions: pH 7.4; for CLint scaled at 5 μM: liver microsomes, in vivo CLint extrapolated from human liver microsome incubation; for half-life at 5 μM: human liver microsomes 0.5 mg protein/mL, compound 5 μM, NADPH, 37° C., read-out: Human T1/2
Protocol: (§1) Human or rat liver microsomes incubations were conducted in duplicate in polypropylene tubes. The typical incubation mixtures consisted of human or rat liver microsomes (0.5 mg protein/mL), compounds of interest (5 μM) and NADPH (1.0 mM) in a total volume of 200 μL potassium phosphate buffer (PBS, 100 mM, pH 7.4). Compounds were dissolved in DMSO and diluted with PBS such that the final concentration of DMSO was 0.05%. The enzymatic reactions were commenced with the addition of protein after a 3-min preincubation and incubated in a water bath open to the air at 37° C. Reactions were terminated at various time points (0, 5, 10, 15, 30, 60 min) by adding equal volume of ice-cold acetonitrile. The samples were stored at −80° C. until LC/MS/MS assays.
(§2) The concentrations of compounds in the incubation mixtures of human or rat liver microsomes were determined by a LC/MS/MS method. The ranges of the linearity in the concentration range were determined for each tested compounds.
(§3) A parallel incubation was performed using denatured microsomes as the negative control, and reactions were terminated at various time points (0, 15, 60 min) after incubation at 37° C.
(§4) Dextromethorphan (70 μM) was selected as the positive control, and reactions were terminated at various time points (0, 5, 10, 15, 30, 60 min) after incubation at 37° C. Both positive and negative control samples were included in each assay to ensure the integrity of the microsomal incubation system.
(§5) The concentrations of compounds in human or rat liver microsome incubations were plotted as a percentage of the relevant zero time point control for each reaction.

[2] = Compound stability in rat liver microsomes; format: in vitro ADME; conditions: pH 7.4; for CLint scaled at 5 μM: liver microsomes, in vivo CLint extrapolated from rat liver microsome incubation; for half-life at 5 μM: rat liver microsomes 0.5 mg protein/mL, compound 5 μM, NADPH, 37° C., read-out: Rat T1/2
Protocol: as §1, §2, §3, §4, §5

[3] = Pharmacokinetic profiles in rats; format: in vivo, rat
Protocol: The compounds disclosed herein are assessed in pharmacokinetic studies in mice, rats, dogs or monkeys. The compounds are administered as a water solution, 2% HPMC+1% TWEEN®80 in water solution, 5% DMSO+5% solutol in saline, 4% MC suspension or capsule. For the intravenous administration, the animals are generally given at 1 or 2 mg/kg dose. For the oral (p.o.) dosing, mice and rats are generally given 5 or 10 mg/kg dose, and dogs and monkeys are generally given 10 mg/kg dose. The blood samples (0.3 mL) are drawn at 0.25, 0.5, 1.0, 2.0, 3.0, 4.0, 6.0, 8.0, 12 and 24 h time points or 0.083, 0.25, 0.5, 1.0, 2.0, 4.0, 6.0, 8.0 and 24 h time points and centrifuged at 3,000 or 4000 rpm for 2 to 10 min. The plasma solutions are collected, stored at −20° C. or −70° C. until analyzed by LC/MS/MS as described above.

CLint scaled at 5 μM [1] [L/h/kg] | half-life at 5 μM [1] [min] | CLint scaled at 5 μM [2] [L/h/kg] | half-life at 5 μM [2] [min] | clearance ([3]; iv dosing 1 mg/kg) [L/h/kg] | AUC(0-t) ([3]; rat, plasma, iv dosing 1 mg/kg) [µg·h/mL] | half-life ([3]; rat, plasma, iv dosing 1 mg/kg) [min] | Vd ([3]; rat, plasma, iv dosing 1 mg/kg, read-out: Vss) [L/kg] | bioavailability ([3]; rat, plasma, oral bioavailability) [%] | Structure (SMILES)
0.858 | 122 | 0.15 | 975 | 0.55 | 1.44 | 194 | 2.38 | 120 | Cc1noc(-c2c(N)ncnc2N[C@@H](C)c2nc3cccc(C#CC(C)(C)O)c3c(=O)n2-c2ccccc2)n1 [Example 1, (S)-2-(1-((6-amino-5-(3-methyl-1,2,4-oxadiazol-5-yl)pyrimidin-4-yl)amino)ethyl)-5-(3-hydroxy-3-methylbut-1-yn-1-yl)-3-phenylquinazolin-4(3H)-one]
1.45 | 71.9 | 2.5 | 59.7 |  |  |  |  |  | Cc1nc(-c2c(N)ncnc2N[C@@H](C)c2nc3cccc(C#CC(C)O)c3c(=O)n2-c2ccccc2)no1 (stereo partly drawn) [Example 6, 2-((S)-1-((6-amino-5-(5-methyl-1,2,4-oxadiazol-3-yl)pyrimidin-4-yl)amino)ethyl)-5-(3-hydroxybut-1-yn-1-yl)-3-phenylquinazolin-4(3H)-one]
0.94 | 111 | 1.98 | 75.4 |  |  |  |  |  | CC(O)C#Cc1cccc2nc([C@H](C)Nc3ncnc(N)c3-c3nnn(C)n3)n(-c3ccccc3)c(=O)c12 (stereo partly drawn) [Example 8, 2-((S)-1-((6-amino-5-(2-methyl-2H-tetrazol-5-yl)pyrimidin-4-yl)amino)ethyl)-5-(3-hydroxybut-1-yn-1-yl)-3-phenylquinazolin-4(3H)-one]
3.78 | 27.6 | 5.84 | 25.5 |  |  |  |  |  | CC#Cc1cccc2nc([C@H](C)Nc3ncnc(N)c3-c3noc(C)n3)n(-c3ccccc3)c(=O)c12 [Example 11, (S)-2-(1-((6-amino-5-(5-methyl-1,2,4-oxadiazol-3-yl)pyrimidin-4-yl)amino)ethyl)-3-phenyl-5-(prop-1-yn-1-yl)quinazolin-4(3H)-one]
5.88 | 17.7 | 4.25 | 35 |  |  |  |  |  | CC#Cc1cccc2nc([C@H](C)Nc3ncnc(N)c3-c3nnn(C)n3)n(-c3ccccc3)c(=O)c12 [Example 12, (S)-2-(1-((6-amino-5-(2-methyl-2H-tetrazol-5-yl)pyrimidin-4-yl)amino)ethyl)-3-phenyl-5-(prop-1-yn-1-yl)quinazolin-4(3H)-one]
6.28 | 16.6 | 5.46 | 27.3 |  |  |  |  |  | CC#Cc1cccc2nc([C@H](CC)Nc3ncnc(N)c3-c3nnc(C)o3)n(C3CC3)c(=O)c12 [Example 27, (S)-2-(1-((6-amino-5-(5-methyl-1,3,4-oxadiazol-2-yl)pyrimidin-4-yl)amino)propyl)-3-cyclopropyl-5-(prop-1-yn-1-yl)quinazolin-4(3H)-one]
1.57 | 66.4 | 1.33 | 112 |  |  |  |  |  | Cc1noc(-c2c(N)ncnc2N[C@@H](C)c2nc3cccc(C#CCO)c3c(=O)n2C2CC2)n1 [Example 30, (S)-2-(1-((6-amino-5-(3-methyl-1,2,4-oxadiazol-5-yl)pyrimidin-4-yl)amino)ethyl)-3-cyclopropyl-5-(3-hydroxyprop-1-yn-1-yl)quinazolin-4(3H)-one]
1.73 | 60.2 | 2.58 | 57.7 |  |  |  |  |  | C[C@H](Nc1ncnc(N)c1-c1nnn(C)n1)c1nc2cccc(C#CCO)c2c(=O)n1-c1ccccc1 [Example 39, (S)-2-(1-((6-amino-5-(2-methyl-2H-tetrazol-5-yl)pyrimidin-4-yl)amino)ethyl)-5-(3-hydroxyprop-1-yn-1-yl)-3-phenylquinazolin-4(3H)-one]
6.28 | 16.6 | 6.69 | 22.3 |  |  |  |  |  | C#Cc1cccc2nc([C@H](C)Nc3ncnc(N)c3-c3nc(C)no3)n(C3CC3)c(=O)c12 [Example 43, (S)-2-(1-((6-amino-5-(3-methyl-1,2,4-oxadiazol-5-yl)pyrimidin-4-1)amino)ethyl)-3-cyclopropyl-5-ethynylquinazolin-4(3H)-one]
17.8 | 5.85 | 10.2 | 14.7 |  |  |  |  |  | C#Cc1cccc2nc([C@H](C)Nc3ncnc(N)c3-c3nc(C)no3)n(-c3ccccc3)c(=O)c12 [Example 44, (S)-2-(1-((6-amino-5-(3-methyl-1,2,4-oxadiazol-5-yl)pyrimidin-4-yl)amino)ethyl)-5-ethynyl-3-phenylquinazolin-4(3H)-one]
18.1 | 5.77 | 5.23 | 28.5 |  |  |  |  |  | C#Cc1cccc2nc([C@H](C)Nc3ncnc(N)c3-c3nnc(C)o3)n(-c3ccccc3)c(=O)c12 [Example 45, (S)-2-(1-((6-amino-5-(5-methyl-1,3,4-oxadiazol-2-yl)pyrimidin-4-yl)amino)ethyl)-5-ethynyl-3-phenylquinazolin-4(3H)-one]
2.95 | 35.3 | 3.65 | 40.8 |  |  |  |  |  | C[C@H](Nc1ncnc(N)c1-c1ncn(C)n1)c1nc2cccc(C#CCO)c2c(=O)n1-c1ccccc1 [Example 46, (S)-2-(1-((6-amino-5-(1-methyl-1H-1,2,4-triazol-3-yl)pyrimidin-4-yl)amino)ethyl)-5-(3-hydroxyprop-1-yn-1-yl)-3-phenylquinazolin-4(3H)-one]
17.2 | 6.05 | 8.39 | 17.8 |  |  |  |  |  | C#Cc1cccc2nc([C@H](C)Nc3ncnc(N)c3-c3noc(C)n3)n(-c3ccccc3)c(=O)c12 [Example 47, (S)-2-(1-((6-amino-5-(5-methyl-1,2,4-oxadiazol-3-yl)pyrimidin-4-yl)amino)ethyl)-5-ethynyl-3-phenylquinazolin-4(3H)-one]
18.6 | 5.6 | 10.3 | 14.5 |  |  |  |  |  | C#Cc1cccc2nc([C@H](C)Nc3ncnc(N)c3-c3nnn(C)n3)n(-c3ccccc3)c(=O)c12 [Example 48, (S)-2-(1-((6-amino-5-(2-methyl-2H-tetrazol-5-yl)pyrimidin-4-yl)amino)ethyl)-5-ethynyl-3-phenylquinazolin-4(3H)-one]
15.6 | 6.7 | 6.43 | 23.2 |  |  |  |  |  | C#Cc1cccc2nc([C@H](C)Nc3ncnc(N)c3-c3ncn(C)n3)n(-c3ccccc3)c(=O)c12 [Example 49, (S)-2-(1-((6-amino-5-(1-methyl-1H-1,2,4-triazol-3-yl)pyrimidin-4-yl)amino)ethyl)-5-ethynyl-3-phenylquinazolin-4(3H)-one]
2.86 | 36.5 | 2.09 | 71.4 |  |  |  |  |  | C#Cc1cccc2nc([C@H](C)Nc3ncnc(N)c3-c3nnc(C)o3)n(C3CC3)c(=O)c12 [Example 50, (S)-2-(1-((6-amino-5-(5-methyl-1,3 4-oxadiazol-2-yl)pyrimidin-4-yl)amino)ethyl)-3-cyclopropyl-5-ethynylquinazolin-4(3H)-one]
7.07 | 14.8 | 7.99 | 18.7 |  |  |  |  |  | C#Cc1cccc2nc([C@H](C)Nc3ncnc(N)c3-c3noc(C)n3)n(C3CC3)c(=O)c12 [Example 51, (S)-2-(1-((6-amino-5-(5-methyl-1,2,4-oxadiazol-3-yl)pyrimidin-4-yl)amino)ethyl)-3-cyclopropyl-5-ethynylquinazolin-4(3H)-one]
4.47 | 23.4 | 4.25 | 35 |  |  |  |  |  | C#Cc1cccc2nc([C@H](C)Nc3ncnc(N)c3-c3ncn(C)n3)n(C3CC3)c(=O)c12 [Example 53, (S)-2-(1-((6-amino-5-(1-methyl-1H-1,2,4-triazol-3-yl)pyrimidin-4-yl)amino)ethyl)-3-cyclopropyl-5-ethynylquinazolin-4(3H)-one]
